Data on nine compounds can be found in article PMC6568020, “Elucidating the Hot Spot Residues of Quorum Sensing Peptidic Autoinducer PapR by Multiple Amino Acid Replacements” (Frontiers in Microbiology, 2019).

Entries after “also recorded” stand apart in the source; their conditions may differ. Where a SMILES comes first, the peptide text is derived from it. [ ]: non-standard residue; d: D form.

In experiment [1] the test system is PlcR regulon (plcA promoter-lacZ fusion). Put plainly: Competition studies of PapR7-derived peptides with endogenous PapR, β-galactosidase (lacZ reporter) assay. In kind it is cell-based, B. thuringiensis 407 Cry- plcA'Z (Bt A'Z). As to conditions: Bt A'Z; for reduction of plcA'Z activity: 2.5 μM peptide, added at late-exponential phase (OD600 1.8 ± 0.1), normalized to untreated cells, mean; for reduction of plcA'Z activity / effect on plcA'Z activation / PlcR regulon activity after 24 h (in words) / effect on plcA'Z activation at low cell density (in words): n = 9; for effect on plcA'Z activation / PlcR regulon activity after 24 h (in words) / effect on plcA'Z activation at low cell density (in words): 10 μM peptide; for effect on plcA'Z activation / PlcR regulon activity after 24 h (in words): added at OD600 0.1 ± 0.03, harvested after 24 h; for effect on plcA'Z activation at low cell density (in words): added at OD600 0.1 ± 0.03, quantified after 2.5 h; for IC50: late-exponential phase (OD600 1.8 ± 0.1), competition with endogenous PapR, mean ± SEM, SEM, read-out: IC50, lacZ-based reporter assay; for class of inhibitory activity throughout the competition studies: plcA'lacZ, summary of the competition studies. Here is the method:
Bacterial strains used in this study: B. thuringiensis 407 Cry ^- plcA′Z (Bt A’Z) and the PapR null-mutant 407 Cry ^- ΔpapR plcA’Z (Bt ΔpapR A’Z) strains, containing a transcriptional fusion between the promoter of plcA and the lacZ reporter gene (as described previously; [Gominet et al., 2001]; [Slamti and Lereclus, 2002]); B. cereus strain ATCC 14579 ([Ivanova et al., 2003]). Unless otherwise noted, cells were grown in modified LB medium (16 g/L tryptone, 8 g/L yeast extract, 5 g/L NaCl) at 37°C and stored at −80°C in LB containing 25% glycerol. Kanamycin (200 μg/mL) was used for the selection of B. thuringiensis.
Bt A’Z cells were grown overnight in LB medium. The cells were diluted 10^–3 in modified LB to a final volume of 1 L and incubated at 37°C with shaking (200 rpm) until the end of the lag or late-exponential of bacterial growth (OD600 0.1 ± 0.03; 1.8 ± 0.1, respectively). Different concentrations of synthetic peptides were added to 2 ml aliquots of culture and incubated for various times (1–24 h) before centrifugation (Eppendorf centrifuge R5810, 4000 rpm for 5 min) and quantification of β-galactosidase activity.
β-galactosidase activity was measured as described previously ([Yang et al., 2017]), with minor modifications. Briefly, 200 μL aliquots from 2 ml treated cultures were added in triplicate to a clear 96-well microtiter plate, and then OD600 was measured and β-galactosidase activity was assayed. The final results were reported as percentage of activation, which is the ratio between the Miller units obtained after addition of the PapR7 analogs. In Bt ΔpapR A’Z strain, the plcA promoter activity was very low and considered as a baseline. In Bt A’Z strain, the untreated bacteria were considered as 100% of activation and the results were normalized accordingly. Each assay was repeated at least three times.
(In general: Reporter assays use an easily measured gene product as a stand-in for the process of interest.)

The subject of another experiment is B. cereus ATCC 14579. Format: cell-based, Bacillus cereus. As to conditions: n = 9; for IC50: supernatant of B. cereus ATCC 14579 cultures treated at OD600 0.1 ± 0.03 for 2.5 h, 1% human red blood cells, 30 min, 37°C, absorbance at 420 nm, mean ± SEM, SEM, read-out: IC50, hemolytic assay. The protocol:
Bt A’Z or B. cereus ATCC 14579 cells were grown overnight in LB medium. The cells were diluted 10^–3 in modified LB to a final volume of 1 liter and incubated at 37°C with shaking (200 rpm) until the end of the lag phase of bacterial growth (OD600 0.1 ± 0.03). Different concentrations of synthetic peptides were added to 2 ml aliquots of culture and incubated for 2.5 h before centrifugation (Eppendorf centrifuge R5810, 4000 rpm for 5 min), separation and filtration (0.2 μm filter) of the supernatants of the treated cultures. Analyses of hemolytic activity were conducted as previously described using human red blood cells ([Tal-Gan et al., 2013b]; [Lobel et al., 2015]). Bacterial supernatants were serially diluted in Tris-buffered saline (pH 7.2, 10 mM Tris–HCl, 155 mM NaCl) with 1% human red blood cells (hRBC) suspension and were incubated for 30 min at 37°C. Hemolytic activities were measured by monitoring the absorbance at 420 nm.

Experiment [2] deals with PlcR of B. thuringiensis 407 Cry- (B. thuringiensis (endogenous in strain 407 Cry- plcA'Z)).
The target of experiment [3] is PlcR of B. cereus ATCC 14579 (B. cereus (endogenous in strain ATCC 14579)).
Experiment [4] has the same target. This is another data set of the same source.
The target of experiment [5] is PlcR of B. thuringiensis 407 Cry- (B. thuringiensis (endogenous in strain 407 Cry- plcA'Z)). The source holds these as a separate data set.

Broadly, the IC50 is the midpoint of a concentration-inhibition curve. On to `CC(C)C[C@H](NC(=O)[C@H](CC(=O)O)NC(=O)[C@H](C)N)C(=O)N1CCC[C@H]1C(=O)N[C@@H](Cc1ccccc1)C(=O)N[C@H](CCC(=O)O)C(=O)N[C@H](Cc1ccccc1)C(N)=O` [PapR7-dE6:dF7] (H-ADLPF[dE][dF]-NH2; N-terminus assumed), for which, in experiment [1], the “reduction of plcA'Z activity” value worked out at 71%, the “effect on plcA'Z activation / PlcR regulon activity after 24 h (in words)” value was “blocked plcA’Z activation; also recorded: blocked the PlcR regulon activity”, the “effect on plcA'Z activation at low cell density (in words)” value (from here on “effect … at low cell density (in words)”) is “blocked plcA’Z activation” and the IC50 amounted to 1680 ± 170 nM. The “class of inhibitory activity throughout the competition studies” value in experiment [1] is given as “very potent inhibitors”. Also, the half-maximal inhibitory concentration (IC50) in the experiment with B. cereus ATCC 14579 was 1380 ± 117 nM.
Compound PapR7-P4A:F7A (peptide) displayed a reduction of plcA'Z (β-galactosidase) activity in Bt A'Z cells, 2.5 μM peptide added at late-exponential phase; the pair that is blocked: endogenous PapR with PlcR in experiment [2] of 40%. This compound yielded a reduction of the hemolytic activity (human red blood cells) of supernatants of B. cereus ATCC 14579 cultures treated with 10 μM peptide; the pair that is blocked: native PapR with PlcR in experiment [3] of 60%.
As to `CC(C)C[C@H](NC(=O)[C@H](CC(=O)O)NC(=O)[C@H](C)N)C(=O)N1CCC[C@H]1C(=O)N[C@@H](Cc1ccccc1)C(=O)N[C@H](CCC(=O)O)C(=O)N[C@@H](C)C(N)=O` [PapR7-dE6:F7A] (H-ADLPF[dE]A-NH2; N-terminus assumed), in experiment [1], the “reduction of plcA'Z activity” value was 65%, the “effect on plcA'Z activation / PlcR regulon activity after 24 h (in words)” value is reported as “blocked plcA’Z activation; also recorded: blocked the PlcR regulon activity”, the “effect … at low cell density (in words)” value is recorded as “blocked plcA’Z activation” and the IC50 is 2570 ± 203 nM. The “class of inhibitory activity throughout the competition studies” value in experiment [1] is “very potent inhibitors”. Also, in the experiment with B. cereus ATCC 14579, the IC50 was determined as 2500 ± 212 nM.
PapR7-P4A (peptide) came in with an IC50 of inhibition of the hemolytic activity (human red blood cells) of supernatants of treated B. cereus ATCC 14579 cultures; the pair that is blocked: native PapR with PlcR in experiment [4] of 4390 nM.
Compound PapR7-dE6 (peptide) yielded an IC50 of inhibition of plcA'Z (β-galactosidase) activity in Bt A'Z cells, lacZ-based reporter assay; the pair that is blocked: endogenous PapR with PlcR in experiment [5] of 977 nM. In experiment [4], this compound yielded an IC50 of inhibition of the hemolytic activity (human red blood cells) of supernatants of treated B. cereus ATCC 14579 cultures; the pair that is blocked: native PapR with PlcR of 1050 nM. The compound further came in with a reduction of plcA'Z (β-galactosidase) activity in Bt A'Z cells, 2.5 μM peptide added at late-exponential phase; the pair that is blocked: endogenous PapR with PlcR in experiment [2] of 65%.
As for PapR7-dF7 (peptide), in experiment [5], the IC50 of inhibition of plcA'Z (β-galactosidase) activity in Bt A'Z cells, lacZ-based reporter assay; the pair that is blocked: endogenous PapR with PlcR turned out to be 1220 nM. Moreover, the IC50 of inhibition of the hemolytic activity (human red blood cells) of supernatants of treated B. cereus ATCC 14579 cultures; the pair that is blocked: native PapR with PlcR in experiment [4] was found to be 3040 nM. This compound also returned a reduction of plcA'Z (β-galactosidase) activity in Bt A'Z cells, 2.5 μM peptide added at late-exponential phase; the pair that is blocked: endogenous PapR with PlcR in experiment [2] of 63%.
For the compound PapR7-E6A:F7A (peptide), the reduction of plcA'Z (β-galactosidase) activity in Bt A'Z cells, 2.5 μM peptide added at late-exponential phase; the pair that is blocked: endogenous PapR with PlcR in experiment [2] is 40%. The compound further showed a reduction of the hemolytic activity (human red blood cells) of supernatants of B. cereus ATCC 14579 cultures treated with 10 μM peptide; the pair that is blocked: native PapR with PlcR in experiment [3] of 60%.
Take `CC(C)C[C@H](NC(=O)[C@H](CC(=O)O)NC(=O)[C@H](C)N)C(=O)N1CCC[C@H]1C(=O)N[C@@H](Cc1ccccc1)C(=O)N[C@H](CCC(=O)O)C(=O)N[C@@H](Cc1ccccc1)C(N)=O` [PapR7-dE6, reference compound] (H-ADLPF[dE]F-NH2; N-terminus assumed): in experiment [1], the “reduction of plcA'Z activity” value was found to be 65% and the IC50 came out at 977 ± 42 nM. Moreover, the 50% inhibitory concentration (IC50) with B. cereus ATCC 14579 was 1050 ± 89 nM.
Consider “ADLAFEdF [PapR7-P4A:dF7, second-generation PapR7-derived peptide ADLAFEdF]”, for which, in experiment [1], the “reduction of plcA'Z activity” value was “approximately 40%”, the “effect … at low cell density (in words)” value was “drastic reduction in plcA’Z activity” and the “class of inhibitory activity throughout the competition studies” value is “median to high inhibitory activities”. The “reduction of hemolytic activity” value with B. cereus ATCC 14579 (10 μM peptide, B. cereus ATCC 14579 treated at OD600 0.1 ± 0.03, human red blood cells, normalized to untreated) is listed as “approximately 83%”.
